The values below come from patent US6765014B1, “1-Acyl-7-nitroindoline derivatives, their preparation and their use as photocleavable precursors” (Medical Research Council, priority 1999, dated 2004).

Data set [1] can be described thus: Relative photolysis efficiencies of 8 and 11 (xenon arc lamp, HPLC). Format: physicochemical. The settings on record: after 2 min irradiation, 0.5 mM each, 25 mM Na phosphate pH 7.0, 100 W xenon arc lamp. As to the method:
Relative photolysis efficiencies of 8 and 11. A solution containing both 8 and 11 (each 0.5 mM) in 25 mM Na phosphate, pH 7.0 was irradiated in a 1-mm path length cell using light from a 100 W xenon arc lamp which passed through Hoya 340 and Schott WG 305 filters before. illuminating the cell. The extent of photolysis of each compound was determined by reverse-phase HPLC analysis (mobile phase 10 mM Na phosphate, pH 6.0+50% MeOH, 1.5 mL/min). Retention times for 8 and 11 were 3.8 and 7.8 min respectively. After 2 min irradiation, the extents of conversion for compounds 8 and 11 were 40 and 16% respectively.
(§1) Upon comparative photolysis of the 1-glutaryl derivatives 8 and 11 in aqueous solutions at pH 7 and without excluding atmospheric oxygen, the bromo compound 11 was indeed converted ˜2.5-fold less efficiently than 8. Photolysis of 8 proceeded cleanly, as shown by an isosbestic point at 365 nm in spectra of a solution photolyzed for increasing times to at least 65% conversion, but the photoproduct of the protecting group was not the 7-nitroindoline 12 (λmax 450 nm) expected from the previous report (6a). […] Further confirmation of the presence of a nitroso group was that treatment of 13, R=CH2CO2Me) with a thiol readily abolished the 412 nm chromophore, presumably by conversion to the corresponding hydroxylamine (11, 12). […] In control experiments, photolysis of the glutaryl compound 8 in CH2Cl2-dioxane-H2O (2:3:0.05) cleanly gave the expected (6a) nitroindoline 12.

The nature of data set [2]: Flash photolysis with time-resolved UV-VIS absorption spectroscopy, proton release (pH indicator). The following applies: 320 nm laser, 1 ms pulse, 20° C. The class given is physicochemical. An excerpt:
(§2) Formation of different products in different solvents requires a change of mechanism and there is some precedent for photoreactivity of nitroaryl compounds in aqueous solution that was not observed in organic solvents. […] Second, we have investigated the kinetics of product formation, specifically of the released proton and carboxylate. […] The latter process may correspond with the slow phase of proton release described above. An overlapping band on the high-frequency side of the main 1553 cm^−1 band makes definitive interpretation of the signals uncertain.

Data set [3] in a line: Analytical photolysis of 8 in organic and aqueous solvents. Format: physicochemical. The following applies: CH2Cl2-dioxane-H2O mixture vs aqueous solution, equimolar solutions. As to the method: Analytical photolysis of 8 in organic and aqueous solvents. Solutions (˜[…]) of 8 in either CH2Cl2-dioxane-H2O (2:3:0.05) or 25 mM Na phosphate, pH 7.0 were irradiated in air for times between 0 and 16 min in a 1-cm path length cell with light from a 100 W xenon arc lamp, filtered through a Hoya 340 filter.
as §1

For data set [4] the following is noted: pH 7,21° C.; cited from earlier work.
Data set [5] can be described thus: Hydrolytic stability of 1-acyl-7-nitroindolines (reverse-phase HPLC). Format: physicochemical. The settings on record: 62.5 mM Na phosphate, pH 12.01, 30° C. As to the method: The extent of hydrolysis was determined by reverse-phase HPLC analysis (mobile phase 25 mM Na phosphate, pH 6.0+10% MeOH, 1.5 ml/min). […] Quantification was based on peak heights compared to those of unhydrolysed controls (to). First-order rate constants for hydrolysis were obtained from single exponential fits to the data.
In addition to the release rate of the bioeffector species following flash irradiation, important properties of any caged compound include stability in aqueous solution and its extent of photolysis upon a single flash irradiation.
In this context, hydrolytic stability refers to the amide bond. […] The use of the free acids avoided analytical complications from the much faster cleavage of the ester group.

The nature of data set [6]: Flash photolysis with time-resolved IR measurements, carboxylate formation. The class given is physicochemical. The following applies: 1557 cm^−1, 351 nm laser, 9 ns pulse, 25° C., pH 7.
Excerpt: as §2

Data set [7] concerns glutamate ion channels. The experiment in a line: Whole-cell patch clamp of cultured rat cerebellar granule neurones, with and without flash photolysis. Format: cell-based. The following applies: with and without iontophoretic application of L-glutamate. The method, then: The caged L-glutamate reagent 10 was tested in primary cultures of rat cerebellar granule neurones for its pharmacological actions and ability to effect photolytic activation of glutamate ion channels. All electrophysiological experiments were performed in Mg^2+-free mammalian Ringer's solution containing 100 μM glycine. Cells were voltage clamped at −65 mV with whole-cell patch clamp (17) and the glutamate sensitivity was established by responses to 20 ms pulses of L-glutamate, applied at a frequency of 0.25 Hz by iontophoresis from a 1-μm tipped glass pipette. […] The latter most likely arises from glutamate diffusion away from the photolyzed region. The time course of the initial decline may represent desensitization of non-NMDA glutamate channels.
During the slow decline there was a clear increase in the low frequency noise of the glutamate-activated current compared to baseline, consistent with gating of glutamate-activated ion channels.
For orientation: In patch-clamp work, channel activity is measured electrically.

Data set [8] in a line: Water solubility (stated in words). The class given is physicochemical.
A short description of data set [9]: Quantum yield estimation by laser flash irradiation (347 nm). Format: physicochemical. As to the method:
Quantum yield estimation for 10. A solution of 1-(2-nitrophenylethyl) phosphate and 10 (each 0.50 mM) together with dithiothreitol (5 mM) was prepared in 25 mM ammonium phosphate, pH 7.0. Aliquots of the solution ([…]) in a 1-mm path length cell were each subjected to one 50-ns flash from a frequency-doubled ruby laser, that delivered 347 nm light with an average energy of 90 mJ (range 83-104 mJ). The combined irradiated solutions were analyzed by reverse-phase HPLC (mobile phase 25 mM Na phosphate, pH 6.0+40% MeOH, 1.5 ml/min). Retention times were 4.2 and 7.2 min for 10 and 1-(2-nitrophenylethyl) phosphate respectively. Quantification was based on peak heights compared to those of the unphotolyzed control. Extinction coefficients at 347 nm used to calculate the relative quantum yields were 2720 and 510 M^−1cm^−1 for 10 and 1-(2-nitrophenylethyl) phosphate respectively. Photolysis and product analysis for compounds 10 and 18.
The product quantum yield (Qp) for photolysis of the glutamate derivative 10 was determined by laser flash irradiation (347 nm) of a solution containing 10 and 1-(2-nitrophenyl)ethyl phosphate (16) (both 0.5 mM in pH 7 phosphate buffer). Conversions by a single flash (˜90 mJ) were 9.7 and 23% respectively (reverse-phase HPLC), leading to Qp=0.043 by comparison with the known value (16) (0.54) for the caged phosphate and after correction for the different extinction coefficients at the irradiation wavelength. Although the value of Qp is low, the relatively high extinction coefficient at ˜350 nm (˜2700 M^−1cm^−1) compared to that of “classical” 2-nitrobenzyl-type caged compounds (˜600 M^−1cm^−1) enables similar photolytic efficiency to be achieved.

The conditions of data set [10]: literature value (16); cited from earlier work.

As to `COC(=O)Cc1cc2c(c([N+](=O)[O-])c1)N(C(=O)CCCC(=O)O)CC2` [Compound 8, Methyl 1-glutaryl-7-nitroindoline-5-acetate], the “Extent of conversion (photolysis)” value in data set [1] is given as 40%. In data set [2] (pH 7), the “Proton release, rate of smaller component” value is roughly 9 s⁻¹ and the “Proton release, time course of major component” value was “complete within the laser pulse”. Also, in data set [2] (pH 7, Bromothymol Blue), the “Proton release, major component share of signal” value is recorded as roughly 85%. Also, the “Fold more efficient photolysis in organic solvent than in water” value in data set [3] is “at least 2 fold”.

As to N-carboxyglutamate, the Decarboxylation rate k in [4] is roughly 150 s⁻¹.

Take `COC(=O)Cc1cc2c(c([N+](=O)[O-])c1)N(C(=O)CCCCOP(=O)(O)O)CC2` [Compound 9]: in [5], the “Half-times for hydrolysis (amide hydrolysis)” value was determined as 29 h. In [6], the “Carboxylate formation, exponential rate of major component” value was roughly 2700 s⁻¹; the “Carboxylate formation, exponential rate of minor component” value was roughly 10 s⁻¹; the “Carboxylate formation, major component share of absorption increase” value is reported as roughly 80%. For the same compound, the “Effect of the caged compound before, during and after photolysis” value in [7] was “no effect”. For the same compound, in data set [8], the “Water solubility” value is “highly water-soluble”.

On to `CC(OP(=O)(O)O)c1ccccc1[N+](=O)[O-]` (stereo not drawn) [1-(2-nitrophenylethyl) phosphate, 1-(2-Nitrophenylethyl) phosphate, reference compound], for which the “Conversion by a single flash” value in [9] (347 nm laser flash, ~90 mJ, 0.5 mM, pH 7 phosphate buffer) is 23%. For the same compound, the “Extinction coefficient at 347 nm” value in data set [9] (used to calculate relative quantum yields) was 510 M⁻¹ cm⁻¹. In data set [10], the “Product quantum yield, known value” was 0.54.
